In data set [1] the test system is scratching or licking induced by pruritic agent. The data set can be described thus: Screening for anti-pruritic effect, topical application, hairless mouse challenged with pruritic agent. The class given is in vivo. Conditions: 5% solution topical, 30 minutes observation. The source says: Either the mouse or the rat may be used as a screening model for anti-pruritic compounds. Before testing hair is plucked from the test site of skin in haired animals. Therefore hairless strains of mouse or the strain of rat known as fuzzy rat is preferred as a screening model for the present purpose.
A test composition containing 5% phenyl-alpha-acyloxyacetamide derivative in solution was topically applied to the left dorsal skin of a hairless mouse and a control vehicle solution was topically applied to the right dorsal skin of the same mouse. The same topical applications were repeated three times at 30 minute intervals. A challenging composition containing a pruritic agent, i.e. itch provoking substance, was then topically applied in a volume of 0.05 ml on both left and right dorsal skin of the same mouse. For the next 30 minutes the mouse was carefully observed for signs and symptoms of scratching or licking at the skin sites where the challenging pruritic composition had been topically applied.
If the mouse scratched or licked indiscriminately at both left and right sides, the test composition was determined to have no anti-pruritic property. […] To confirm the anti-pruritic effect of the test composition, the test solution was later topically applied to the right instead of the left dorsal skin of the same mouse. […]

Data set [2] deals with itch provoked by papain or histamine dihydrochloride. The data set can be described thus: Anti-pruritic effect on normal human skin (papain or histamine induced itch). The data set is classed as in vivo. Conditions: 2 to 5% topical, normal human adult volunteers. Here is the method:
Itch provoking pruritic compositions were prepared as follows: papain 0.5% solution was prepared by dissolving papain 50 mg in 10 ml of saline, and histamine 0.2% solution was prepared by dissolving histamine dihydrochloride 20 mg in 10 ml of saline. Itching was provoked or induced as follows: a pruritic composition in a volume of 0.05 ml containing papain or histamine dihydrochloride as a pruritic agent was topically applied on the flexor forearm of normal human adult volunteers and the skin site was gently pricked rapidly through the solution with a 26-gauge needle to the level of the papillary dermis as described by Bernstein et al. (J. E. Bernstein, R. M. Swift, K. Soltani and A. L. Lorincz: Antipruritic Effect of an Opiate Antagonist, Naloxone Hydrochloride in Journal of Investigative Dermatology 78, 82-83, 1982). This technique provoked or induced itch sensation at the test skin site within a few minutes following the topical application of the pruritic composition. After itch sensation had been induced a composition containing 2 to 5% N-ethyl phenyl-alpha-acetoxyacetamide, N-phenethyl phenyl-alpha-acetoxyacetamide or other phenyl-alpha-acyloxyacetamide derivatives of the instant invention was topically applied on the pruritic skin site. The vehicle alone cream containing no active ingredient was used as a control.

Data set [3] has as its system Eczemas, and Other Pruritic Disorders. The data set can be described thus: Topical anti-pruritic effect in patients with pruritic disorders. The data set is classed as in vivo, human. Conditions: first category compounds, 2 to 5%.
From the text: Patients with various kinds of pruritic disorders participated in this study. The cases included atopic eczema, patchy eczema, chronic eczema of the hands, lichen simplex chronicus, contact allergic eczema, pruritus of the aged, pruritus of hepatic origin, pruritus ani, pruritus vulvae, scalp pruritus and pruritus of other disorders such as mycosis fungoides, psoriasis and pityriasis rubra pilaris.
Therapeutic compositions containing phenyl-alpha-acyloxyacetamides at 2 to 5% concentrations in cream, ointment, lotion or solution were prepared according to the Examples. The medicinal compositions were topically applied by the patient in an amount sufficient to cover the itching area of skin. Applications were made one to two times daily or as frequently as necessary and without occlusive dressings.
Two parameters have been used to compare degrees of anti-pruritic effect of phenyl-alpha-acyloxyacetamides. The first parameter is whether the relief of itching is complete (2+) or incomplete (1+). The second parameter is the number of hours the patient stays free of pruritus after the initial anti-pruritic effect. […] Therefore, the overall anti-pruritic effect of a compound may range from 2+ to 4+. […] 4+ for complete relief and lasting for more than 8 hours.
The subject of data set [4] is summer eczema-prurigo. The data set can be described thus: Oral anti-scratch (anti-pruritic) treatment of dogs. The class given is in vivo. The conditions noted are these: for adverse effects on repeated dosing: dog, in vivo, po; for duration of anti-scratch or anti-pruritic effect / drowsiness or intoxication / time to stop scratching / anti-pruritic or anti-scratching effect on repeated dosing: dogs; for duration of anti-scratch or anti-pruritic effect / drowsiness or intoxication / time to stop scratching: oral single dose 5 to 10 mg/kg; for drowsiness or intoxication / time to stop scratching: all three dogs; for anti-pruritic or anti-scratching effect on repeated dosing: oral, repeated at intervals of two to several days. The protocol: Three dogs with summer eczema-prurigo were treated with oral administration of phenyl-alpha-acyloxyacetamide derivatives. Gelatin capsules containing N-ethyl phenyl-alpha-acetoxyacetamide or N-phenethyl phenyl-alpha-acetoxyacetamide at dosages ranging from 50 mg to 150 mg per capsule were prepared according to Examples. Single doses of 5 mg/kg to 10 mg/kg were administered orally to the dogs.
Oral doses containing N-ethyl phenyl-alpha-acetoxyacetamide or N-phenethyl phenyl-alpha-acetoxyacetamide were administered repeatedly to the dogs at intervals of two to several days.

The test system of data set [5] is calming or quieting behaviour. The data set can be described thus: Tranquilizing effect, subcutaneous administration in mice. The class given is in vivo, hairless mice, white hairy mice. The conditions noted are these: 1 to 2% solution. Here is the method: (§1) Hairless mice, white hairy mice and dogs were used in these studies.
N-phenethyl phenyl-alpha-acetoxyacetamide, N-ethyl phenyl-alpha-acetoxyacetamide or other phenyl-alpha-acyloxyacetamide derivative of the instant invention was prepared as a 1 to 2% solution or as gelatin capsules containing 75 to 300 mg per capsule of the active ingredient. Hairless mice or white hairy mice five in each group were injected subcutaneously with the test solution in a volume of 0.1 ml. The same procedure was repeated once more 3 hours later. For the next 8 hours and also at 24 hours later, all the mice were carefully observed and examined for any signs and evidences of calming or quieting effects caused by the test compound.
Parameters and criteria used for sedative or tranquilizing effect were the same as that described in the foregoing section.

Data set [6] concerns calming or sedative effects. The data set can be described thus: Tranquilizing effect, oral administration in dogs. The class given is in vivo. The conditions noted are these: test compounds 5 to 10 mg per kg. Here is the method:
as §1
Three dogs weighing between 10 to 20 kg were given orally N-phenethyl phenyl-alpha-acetoxyacetamide or N-ethyl phenyl-alpha-acetoxyacetamide in gelating capsules at doses of 5 to 10 mg per kg.

Data set [7] relates to hind limb arthritis secondary to hip dysplasia. The data set can be described thus: Analgesic effects, oral, dogs with arthritis. The data set is classed as in vivo. Conditions: two dogs, oral approximately 8 mg per kg. The protocol: To test whether in addition to tranquilizing effects in animals, analgesic properties of phenyl-alpha-acyloxyacetamide derivatives of the instant invention might exist we administered systemically these compounds to dogs. N-ethyl phenyl-alpha-acetoxyacetamide or N-phenethyl phenyl-alpha-acetoxyacetamide in single oral doses of approximately 8 mg per kg was given to two dogs disabled with hind limb arthritis secondary to hip dysplasia. One dog weighed 23 kg; the other weighed 28 kg.
The disability in both animals was such that they were unable to jump up upon a test table, 45 cm L×45 cm W×45 cm H, on which had been placed a piece of food as an inducement; nor were they able to run about or romp, their movements being limited to walking with evident stiffness of gait.

Data set [8] deals with pruritus ani. The data set can be described thus: Topical treatment of pruritus ani. The conditions noted are these: 1 to 5 percent, regular basis. The data set is classed as in vivo, human. An excerpt:
(§2) It has already been established through tests in animals and humans that phenyl alpha-acyloxyacetamide derivatives are therapeutically effective for topical or systemic treatment of various dermatologic and other conditions.

Data set [9] relates to common scratching. The data set can be described thus: Systemic treatment of domestic dogs for common scratching. Conditions: oral single dose 5 to 10 mg per kg. The data set is classed as in vivo.
From the text: as §2

SMILES strings stand for the structures.

As for `CCNC(=O)C(OC(C)=O)c1ccccc1` (stereo not drawn) [N-ethyl phenyl-alpha-acetoxyacetamide], the Anti-pruritic Effect result in data set [1] is “substantial anti-pruritic effect”. Moreover, in [2], the Anti-pruritic Effect entry was “substantial anti-pruritic effect”. Moreover, the “Anti-pruritic Effect” value in [3] was 4+ (complete relief and lasting for more than 8 hours). Moreover, in data set [4], the “adverse effects on repeated dosing” value is reported as “No evidence of adverse effects was detected”; the “duration of anti-scratch or anti-pruritic effect” value is recorded as “approximately 8 hours”; the drowsiness or intoxication result was “mentally alert as usual and did not have any signs or symptoms of drowsiness or intoxication”; the “time to stop scratching” value is listed as “one”. In data set [4], the “anti-pruritic or anti-scratching effect on repeated dosing” value is recorded as “the same anti-pruritic or anti-scratching effect”. In addition, in data set [5], the tranquilizing effect result was “no detectable signs of sedation”. In [6], the “tranquilizing / sedative effect” value is “no detectable signs of sedation”. In [7], the physical incapacities entry is “diminished” and the “time after administration at which incapacities were diminished” value is “Two to three”. Further, the “relief from itching and scratching” value in data set [8] is “complete relief from itching and scratching”. The “relief of scratching, duration” value in [9] was “more than 8 hours”.
For `CC(=O)OC(C(=O)NCCc1ccccc1)c1ccccc1` (stereo not drawn) [N-phenethyl phenyl-alpha-acetoxyacetamide], the Anti-pruritic Effect entry in data set [1] was “substantial anti-pruritic effect”. In addition, the Anti-pruritic Effect result in [2] was “substantial anti-pruritic effect”. Moreover, in [3], the “Anti-pruritic Effect” value was 4+ (complete relief and lasting for more than 8 hours). Besides, in data set [4], the “adverse effects on repeated dosing” value was “No evidence of adverse effects was detected”; the “duration of anti-scratch or anti-pruritic effect” value was “approximately 8 hours”; the drowsiness or intoxication entry is “mentally alert as usual and did not have any signs or symptoms of drowsiness or intoxication”; the “time to stop scratching” value was “one”. Further, in [4], the “anti-pruritic or anti-scratching effect on repeated dosing” value is “the same anti-pruritic or anti-scratching effect”. Moreover, the tranquilizing effect result in data set [5] is on record as “marked degrees of calming effect”. In [6], the “tranquilizing / sedative effect” value is recorded as “mild tranquilizing effect”. In addition, in data set [7], the physical incapacities result was “diminished” and the “time after administration at which incapacities were diminished” value is “Two to three”. In [8], the “relief from itching and scratching” value was “complete relief from itching and scratching”. The “relief of scratching, duration” value in data set [9] is listed as “more than 8 hours”.
